Results published in the supplement of paper PMC10307832.

Experiments:
Assay in all cases: relative viability (nuclei count vs DMSO), 5 days (fraction); higher = more cells survive
[1] = compound: Cc1ccc(C(=O)Nc2cccc(C(F)(F)F)c2)cc1Nc1cncc(C(N)=O)c1 [ALW-II-49-7] + COc1cccc2cc(-c3nc([C@H]4CC[C@H](C(=O)O)CC4)n4ncnc(N)c34)[nH]c12 [OSI-027] (partner 0.5 µM)
Summary of the method: (§1)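 Five library-drug doses in √10 steps were combined with a fixed anchor-drug dose, or a single drug was given alone, by pin tool to lung cancer cell lines in 1536-well plates the day after seeding. Nuclei were stained and counted after 5 days. Relative viability is the nuclei count in treated wells over that in vehicle wells, taken as the median of duplicate plates.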

[2] = compound: Cc1ccc(C(=O)Nc2cccc(C(F)(F)F)c2)cc1Nc1cncc(C(N)=O)c1 [ALW-II-49-7] + CC1(C)CCC(c2ccc(Cl)cc2)=C(CN2CCN(c3ccc(C(=O)NS(=O)(=O)c4ccc(N[C@H](CCN5CCOCC5)CSc5ccccc5)c(S(=O)(=O)C(F)(F)F)c4)cc3)CC2)C1 [Navitoclax] (partner 0.5 µM)
Summary of the method: as §1

[3] = compound: Cc1ccc(C(=O)Nc2cccc(C(F)(F)F)c2)cc1Nc1cncc(C(N)=O)c1 [ALW-II-49-7] + CS(=O)(=O)N1CCN(Cc2cc3nc(-c4cccc5[nH]ncc45)nc(N4CCOCC4)c3s2)CC1 [Pictilisib] (partner 1 µM)
Summary of the method: as §1

| Cell Line | relative viability ([1]; first compound 0.08 µM) | relative viability ([1]; first compound 0.253 µM) | relative viability ([1]; first compound 0.8 µM) | relative viability ([1]; first compound 2.53 µM) | relative viability ([1]; first compound 8 µM) | relative viability ([2]; first compound 0.08 µM) | relative viability ([2]; first compound 0.253 µM) | relative viability ([2]; first compound 0.8 µM) | relative viability ([2]; first compound 2.53 µM) | relative viability ([2]; first compound 8 µM) | relative viability ([3]; first compound 0.08 µM) | relative viability ([3]; first compound 0.253 µM) | relative viability ([3]; first compound 0.8 µM) | relative viability ([3]; first compound 2.53 µM) | relative viability ([3]; first compound 8 µM) |
| --- | --- | --- | --- | --- | --- | --- | --- | --- | --- | --- | --- | --- | --- | --- | --- |
| 201T | 0.68 | 0.841 | 0.462 | 0.493 | 0.684 | 1.18 | 1.22 | 1.21 | 1.27 | 1.23 | 0.666 | 0.684 | 0.771 | 0.714 | 0.628 |
| A549 | – | – | – | – | – | 1.2 | 1.21 | 1.33 | 1.15 | 1.21 | 0.535 | 0.568 | 0.496 | 0.505 | 0.416 |
| A-427 | 0.412 | 0.484 | 0.472 | 0.444 | 0.473 | 1.07 | 0.942 | 0.998 | 0.994 | 1.05 | 0.687 | 0.634 | 0.835 | 0.775 | 0.734 |
| ABC-1 | 0.404 | 0.423 | 0.481 | 0.494 | 0.379 | – | – | – | – | – | 0.879 | 0.761 | 0.811 | 0.79 | 0.689 |
| BEN | 0.548 | 0.317 | 0.294 | 0.288 | 0.403 | 0.111 | 0.0965 | 0.0694 | – | 0.0797 | 0.56 | 0.592 | 0.608 | – | 0.567 |
| CAL-12T | 0.734 | 0.745 | 0.612 | 0.759 | 0.503 | 1.15 | 1.08 | 1.2 | 1.42 | 1.17 | 0.343 | – | – | 0.715 | 0.395 |
| COR-L23 | 0.556 | 0.709 | 0.828 | 0.715 | 0.677 | 1.14 | 0.954 | 1.04 | 0.805 | 1.27 | 0.839 | 0.548 | 0.739 | 0.72 | 0.779 |
| COR-L 105 | 0.644 | 0.719 | 0.66 | 0.644 | 0.753 | 0.812 | 0.669 | 0.767 | 0.721 | 0.655 | 0.543 | 0.419 | 0.387 | 0.344 | 0.422 |
| Calu-6 | – | – | – | – | – | 0.814 | 0.84 | 0.731 | 0.591 | 0.636 | 1.02 | 0.99 | 0.907 | 0.735 | 0.72 |
| ChaGo-K-1 | 0.472 | 0.622 | 0.616 | 0.496 | 0.429 | 0.931 | 1.45 | 1.27 | 1.29 | 0.753 | 0.661 | 1.04 | 0.818 | 1.19 | 0.442 |
| EBC-1 | – | – | – | – | – | 0.403 | 0.377 | 0.348 | 0.321 | 0.277 | 0.315 | 0.316 | – | 0.242 | 0.244 |
| EKVX | 0.579 | 0.773 | 0.578 | 0.653 | 0.679 | 0.942 | 0.888 | 0.832 | 0.502 | 1.08 | 0.42 | 0.475 | 0.438 | 0.398 | 0.499 |
| EMC-BAC-2 | 0.351 | 0.39 | 0.336 | 0.296 | 0.305 | 0.972 | 1.19 | 1.18 | 1.01 | 1.07 | 0.507 | 0.59 | 0.567 | 0.556 | 0.46 |
| EPLC-272H | 0.277 | – | 0.278 | 0.293 | 0.265 | 1.16 | 1.03 | 1.04 | 1.06 | 1.19 | 0.258 | 0.359 | 0.328 | 0.37 | 0.29 |
| IA-LM | – | – | – | – | – | 0.84 | 0.551 | 0.689 | 0.213 | 0.0967 | 0.334 | 0.281 | 0.388 | 0.209 | 0.288 |
| LCLC-103H | 0.43 | 0.462 | 0.474 | 0.463 | 0.377 | – | – | – | – | – | 0.544 | 0.859 | 0.692 | 0.67 | 0.546 |
| NCI-H358 | 0.722 | 0.788 | 0.628 | 0.756 | 0.611 | – | – | – | – | – | 0.361 | 0.401 | 0.363 | 0.405 | 0.456 |
| NCI-H522 | 0.795 | 0.753 | 0.634 | 0.718 | 0.749 | – | – | – | – | – | – | – | – | – | – |
| NCI-H650 | 0.519 | 0.509 | 0.511 | 0.419 | 0.391 | – | – | – | – | – | 0.893 | 0.873 | 0.763 | 0.39 | 0.528 |
| NCI-H661 | 0.552 | 0.773 | 0.781 | 0.78 | 0.452 | – | – | – | – | – | 0.377 | 0.345 | 0.348 | – | 0.351 |
| NCI-H1299 | – | – | – | – | – | 1.03 | 1.08 | 1.05 | 1.07 | 0.968 | 0.623 | 0.78 | 0.609 | 0.436 | 0.311 |
| NCI-H1563 | 0.717 | 0.71 | 0.731 | 0.782 | 0.679 | – | – | – | – | – | 0.573 | 0.661 | 0.643 | 0.595 | 0.657 |
| NCI-H1623 | 0.416 | 0.408 | 0.371 | 0.351 | 0.357 | – | – | – | – | – | – | – | – | – | – |
| NCI-H1648 | 0.254 | 0.264 | 0.264 | 0.255 | 0.215 | – | – | – | – | – | – | – | – | – | – |
| NCI-H1703 | – | – | – | – | – | 1.02 | 1.08 | 0.964 | 0.406 | 0.291 | 0.239 | 0.241 | 0.212 | 0.203 | 0.205 |
| NCI-H2342 | 0.532 | 0.535 | 0.602 | 0.592 | 0.562 | – | – | – | – | – | – | – | – | – | – |
| SW 900 | 0.426 | 0.642 | 0.555 | 0.445 | 0.347 | – | – | – | – | – | – | – | – | – | – |
